# Measured values from US7572768B2, “Methods for identifying compounds for regulating muscle mass or function using corticotropin releasing factor receptors” (priority 2001, dated 2009).
# Ends that are not written are not given here.
# What was measured:
# Type in all cases: in vivo
# skeletal muscle atrophy [1] = test: animal models of skeletal muscle atrophy (summary of FIGS. 1-9); details: theophylline administered alone in these atrophy models
# Procedure: Theophylline was added to potentiate the duration and magnitude of action of the CRFR agonist therefore resulting in increased efficacy of these compounds. […] Statistical significance of the results was determined using ANCOVA (Douglas C. Montgomery, Design and Analysis of Experiments, John Wiley and Sons, New York (2nd ed. 1984)). Abbreviations used in FIGS. 1-9: g-gram; SEM-standard error of the mean.
# skeletal muscle atrophy [2] = test: Example 13: prophylactic treatment of skeletal muscle atrophy in comatose subject; details: human 60 kg, slow i.v. infusion once each day, 5 ml of 12 mg/ml stock in 500 ml saline
# Procedure: A human subject weighing 60 kg is admitted to the hospital in a comatose state. The subject is treated by this method to prevent atrophy of the skeletal muscle of the entire body due to disuse in the comatose state. Specifically, once each day while in the coma, the subject is administered, via slow intravenous infusion, approximately 500 ml of an aqueous solution that is prepared by addition of 5 ml of the following stock solution to 500 ml of sterile saline: […]
# [3] = test system: disuse-induced atrophy of skeletal muscle; test: mouse leg casting disuse atrophy model; details: male mice, 0.3 mg/kg s.c. twice daily + theophylline 30 mg/kg i.p., ten days
# Procedure: (§1) Legend: A—physiological saline (control); B—theophylline; C—sauvagine (0.03 mg/kg)+theophylline; D—sauvagine (0.1 mg/kg)+theophylline; E—sauvagine (0.3 mg/kg)+theophylline; *—p≦0.05 compared to saline. Following casting of the right hind leg, male mice were injected subcutaneously in the midscapular region twice daily, with sauvagine or vehicle control (physiological saline) for ten days at the daily delivered dose indicated. Sauvagine was co-administered with twice daily intra-peritoneal dosing of the phosphodiesterase inhibitor theophylline (30 mg/kg). On day ten, the medial gastrocnemius and tibialis anterior muscles were removed and weighed to determine the degree of atrophy.
# as §1, with “B—urocortin” for “B—theophylline; C—sauvagine (0.03 mg/kg)+theophylline; D—sauvagine (0.1 mg/kg)+theophylline; E—sauvagine”, “urocortin” for “sauvagine”, “days. Urocortin was administered” for “days”, “doses indicated in the description of FIGS. 6A and 6B. Urocortin” for “daily delivered dose indicated. Sauvagine”
# Legend: A—non casted muscle control; B—casted muscle, saline control; C—casted muscle, sauvagine (0.3 mg/kg)+theophylline (30 mg/kg); *—p≦0.05 compared to saline. Following casting of the right hind leg, male mice were injected subcutaneously in the midscapular region twice daily, with either sauvagine or vehicle control (physiological saline) for ten days at the doses indicated above. Sauvagine was co-administered 30 mg/kg theophylline. On day ten, the EDL and soleus muscles were removed and absolute force and mass measurements taken to determine the degree of atrophy.
# The leg casting disuse atrophy model involves casting one hind leg of an animal from the knee down through the foot. Typically, muscle mass is reduced 20-40% after ten days of casting. Following casting, test compounds are administered by injection or by continuous infusion via implantation of an osmotic minipump (e.g., Alzet, Palo Alto, Calif.) to determine their effect on leg casting induced skeletal muscle atrophy. At various times following leg casting, the extent of atrophy in the affected muscles is analyzed as described above for the denervation model.
# The extensor digitorum longus (EDL) and soleus muscles are removed, tendon-to-tendon from the casted mouse leg. A silk suture is tied to each tendon of the isolated muscles and the muscles are placed into a plexiglass chamber filled with Ringer solution (137 mM sodium chloride, 24 mM sodium bicarbonate, 11 mM glucose, 5 mM potassium chloride, 1 mM magnesium sulfate, 1 mM sodium phosphate, 0.025 mM tubocurarine, all at pH 7.4 and oxygenated with 95% oxygen/5% carbon dioxide) constantly bubbled with 95% oxygen/5% carbon dioxide maintained at 25° C. Muscles are aligned horizontally between a servomotor lever arm (Model 305B-LR Cambridge Technology Inc., Watertown Mass., USA) and the stainless steel hook of a force transducer (Model BG-50; Kulite Semiconductor Products Inc., Leonia, N.J., USA) and field stimulated by pulses transmitted between two platinum electrodes placed longitudinally on either side of the muscle. Square wave pulses (0.2 ms duration) generated by a personal computer with a Labview board (Model PCI-MIO 16E-4), Labview Inc., Austin, Tex., USA) are amplified (Acurus power amplifier model A25, Dobbs Ferry, N.Y., USA) to increase titanic contraction. Stimulation voltage and muscle length (Lo) are adjusted to obtain maximum isometric twitch force. Maximum titanic force production (Po) is determined from the plateau of the frequency-force relationship.
# [4] = test system: denervation-induced atrophy of skeletal muscle; test: mouse sciatic nerve denervation atrophy model; details: FIG. 5, day nine
# Procedure: Legend: A—physiological saline (control); B—sauvagine (0.01 mg/kg)+theophylline; C—sauvagine (0.03 mg/kg)+theophylline; D—sauvagine (0.1 mg/kg)+theophylline; E—sauvagine (1.0 mg/kg)+theophylline; *—p≦0.05 compared to saline. Following denervation of the right sciatic nerve, male mice were injected subcutaneously in the midscapular region twice daily with sauvagine, at the doses indicated above or vehicle control (physiological saline) for nine days. Sauvagine was co-administered with 30 mg/kg theophylline. On day nine, the medial gastrocnemius muscle was removed and weighed to determine the degree of atrophy.
# Legend: A—water (control); B—sauvagine (0.1 mg/kg/d); C—sauvagine (0.3 mg/kg/d); D—sauvagine (1.0 mg/kg/d); *—p≦0.05 compared to water. Following denervation of the right sciatic nerve, male mice were dosed with either sauvagine or vehicle control (physiological saline) by continuous infusion using an Alzet osmotic minipump at 5 μl/hr until the end of the experimental period (without additional theophylline). The daily delivered dose of sauvagine is indicated above. Minipump implantation was performed at the time of sciatic nerve denervation. On day nine the tibialis anterior muscle was removed and weighed to determine the degree of atrophy.
# Legend: A—water (control); B—sauvagine (1 mg/kg/d); C—urocortin (1.0 mg/kg/d); *—p≦0.05 compared to water. Following denervation of the right sciatic nerve, male mice were dosed with the above indicated agents or vehicle control (physiological saline) by continuous infusion using an Alzet osmotic minipump at 5 μl/hr until the end of the experimental period (without additional theophylline). The daily delivered dose of the agents is indicated above. Minipump implantation was performed at the same time as the sciatic nerve denervation. On day nine the tibialis anterior muscle was removed and weighed to determine the degree of atrophy.
# Legend: A-C—wild-type mice; D-F—CRF2R knockout mice. A and D—water (control); B and E—sauvagine (0.3 mg/kg/d); C and F—sauvagine (1.0 mg/kg/d); *—p≦0.05 compared to saline. Following denervation of the right sciatic nerve, female wild-type and CRF2R knockout mice were dosed with sauvagine or vehicle control by continuous infusion using an Alzet osmotic minipump at 5 μl/hr for nine days at the daily delivered dose indicated above. On day nine, the tibialis anterior muscle was removed and weighed to determine the degree of atrophy.
# The sciatic nerve denervation atrophy model involves anesthetizing the animal followed by the surgical removal of a short segment of either the right or left sciatic nerve, e.g., in mice the sciatic nerve is isolated approximately at the midpoint along the femur and a 3-5 mm segment is removed. This denervates the lower hind limb musculature resulting in atrophy of these muscles. Typically, innervation to the biceps femoris is left intact to provide satisfactory motion of the knee for virtually normal ambulation. Typically, in untreated animals, muscle mass of the denervated muscles is reduced 30-50% ten days following denervation. Following denervation, test compounds are administered e.g., by injection or by continuous infusion, e.g., via implantation of an osmotic minipump (e.g., Alzet, Palo Alto, Calif.), to determine their effect on denervation induced skeletal muscle atrophy. At various times following denervation, the animals are euthanized and lower leg muscles are dissected rapidly from both the denervated and nondenervated legs, the muscles, cleaned of tendons and connective tissue, are weighed. The extent of atrophy in the affected muscles is analyzed, for example, by measuring muscle mass, muscle cross-sectional area, myofiber cross-sectional area or contractile protein content.
compound,measurement,setting,value
"Cn1c(=O)c2[nH]cnc2n(C)c1=O [Theophylline, theophylline]",effect on skeletal muscle atrophy,skeletal muscle atrophy [1],had no effect
Urocortin-II (VILSLDVPIGLLRILLEQARYKAARNQAATNAQILAHV; listed as Mus musculus) [CRF analog],skeletal muscle mass and function,skeletal muscle atrophy [2],measurable preservation of skeletal muscle mass and function
"urocortin (DNPSLSIDLTFHLLRTLLELARTQSQRERAEQNRIIFDSV; ends and bridges not checked; UniProt P55089 83-122, looked up) [mammalian congener of urotensin, CRFR agonist (Bachem Biosciences, Inc.)]",disuse-induced atrophy of the tibialis anterior muscle (muscle weight),[3]; FIG. 6A,inhibits disuse-induced atrophy
same,disuse-induced atrophy of the medial gastrocnemius muscle (muscle weight),[3]; FIG. 6B,inhibits disuse-induced atrophy
same,hypertrophy of the non-denervated leg (tibialis anterior muscle),[4]; 1.0 mg/kg/d by osmotic minipump,hypertrophy of the non-denervated leg was observed
same,denervation-induced atrophy of the tibialis anterior muscle (muscle weight),"[4]; male mice, 1 mg/kg/d continuous infusion by osmotic minipump, no theophylline",inhibit denervation-induced atrophy
